From ChEMBL document CHEMBL1201862, “PubChem BioAssay data set” (2004)
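Five concentrations, 48 hours, 96-well plates. At the GI50, growth is halved.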 Calls of active or inactive are those of the source. Cut-off read from the data, not from the text of the source: active = GI50 up to about 1.1 µM and inactive = higher.

What was measured:
Assay in all cases: NCI tumour cell line growth inhibition, 48 h
UACC-257 = system: UACC-257
HCT-116 = system: HCT-116
K562 = system: K562
RXF 393 = system: RXF 393
CCRF-CEM = system: CCRF-CEM
NCI-H226 = system: NCI-H226
UO-31 = system: UO-31
RPMI-8226 = system: RPMI-8226
HT-29 = system: HT-29
SK-MEL-5 = system: SK-MEL-5
OVCAR-4 = system: OVCAR-4
HOP-62 = system: HOP-62
TK-10 = system: TK-10
LOX IMVI = system: LOX IMVI
OVCAR-5 = system: OVCAR-5
CAKI-1 = system: CAKI-1

Measured: GI50

Nc1nc2c3nc(Nc4ccccc4)sc3nc(=O)n2c2sc(Nc3ccccc3)nc12
inactive: UACC-257 > 100 µM | HCT-116 > 100 µM | K562 > 100 µM | RXF 393 > 100 µM | CCRF-CEM > 100 µM | NCI-H226 > 100 µM | UO-31 > 100 µM | RPMI-8226 > 100 µM | HT-29 > 100 µM | SK-MEL-5 > 100 µM | OVCAR-4 > 100 µM | HOP-62 > 100 µM

O=c1c2ccccc2c(=O)n2n1CC=CC2
inactive: TK-10 > 100 µM | UACC-257 > 100 µM | HCT-116 > 100 µM | K562 > 100 µM | RXF 393 > 100 µM | LOX IMVI > 100 µM | OVCAR-5 > 100 µM | CCRF-CEM > 100 µM | NCI-H226 > 100 µM | UO-31 > 100 µM | RPMI-8226 > 100 µM | HT-29 > 100 µM | SK-MEL-5 > 100 µM | CAKI-1 > 100 µM | OVCAR-4 > 100 µM

O=C1C=Cc2c(-c3ccccc3)oc3cccc1c23
inactive: TK-10 39.7 µM | UACC-257 35.4 µM | HCT-116 16.9 µM | K562 17.2 µM | RXF 393 24.1 µM | LOX IMVI 11.2 µM | OVCAR-5 26.4 µM | CCRF-CEM 15 µM | NCI-H226 11.3 µM | UO-31 6.35 µM | RPMI-8226 3.97 µM | HT-29 23.4 µM | SK-MEL-5 20.5 µM | CAKI-1 6.55 µM | OVCAR-4 40.7 µM | HOP-62 13.8 µM

Cc1ccc(/C=C/C(=O)c2ccc(Cl)c(Cl)c2)cc1
inactive: TK-10 > 100 µM | UACC-257 > 100 µM | HCT-116 > 100 µM | K562 > 100 µM | RXF 393 84.1 µM | LOX IMVI > 100 µM | OVCAR-5 > 100 µM | CCRF-CEM > 100 µM | NCI-H226 > 100 µM | UO-31 > 100 µM | HT-29 > 100 µM | SK-MEL-5 > 100 µM | CAKI-1 > 100 µM | OVCAR-4 > 100 µM | HOP-62 > 100 µM

O=C1C(=O)N(C(=O)c2ccc(Cl)c(Cl)c2)c2ccccc21
inactive: TK-10 > 100 µM | K562 > 100 µM | RXF 393 > 100 µM | LOX IMVI > 100 µM | OVCAR-5 > 100 µM | CCRF-CEM > 100 µM | NCI-H226 44.9 µM | UO-31 > 100 µM | RPMI-8226 > 100 µM | HT-29 > 100 µM | SK-MEL-5 > 100 µM | OVCAR-4 > 100 µM

O=C(Cc1nc2ccccc2s1)C(=O)Nc1ccccc1C(F)(F)F
inactive: TK-10 > 100 µM | UACC-257 > 100 µM | HCT-116 > 100 µM | K562 > 100 µM | RXF 393 > 100 µM | LOX IMVI > 100 µM | OVCAR-5 > 100 µM | CCRF-CEM > 100 µM | NCI-H226 > 100 µM | UO-31 > 100 µM | HT-29 > 100 µM | SK-MEL-5 > 100 µM | CAKI-1 > 100 µM | OVCAR-4 > 100 µM | HOP-62 > 100 µM

Cc1ccccc1NC(=O)CC1C(=O)Nc2ccccc2[S+]1[O-] (centres undefined)
inactive: TK-10 > 100 µM | UACC-257 > 100 µM | HCT-116 > 100 µM | K562 > 100 µM | RXF 393 26.6 µM | LOX IMVI > 100 µM | OVCAR-5 > 100 µM | CCRF-CEM > 100 µM | NCI-H226 > 100 µM | UO-31 > 100 µM | RPMI-8226 > 100 µM | HT-29 > 100 µM | SK-MEL-5 > 100 µM | CAKI-1 > 100 µM | OVCAR-4 71.6 µM

CCn1c2ccccc2c2ccc3c(c21)C(=O)c1ccccc1C3=O
inactive: UACC-257 > 100 µM | HCT-116 > 100 µM | K562 > 100 µM | RXF 393 84.1 µM | CCRF-CEM 74.3 µM | NCI-H226 > 100 µM | UO-31 > 100 µM | RPMI-8226 > 100 µM | HT-29 > 100 µM | SK-MEL-5 76.6 µM | OVCAR-4 > 100 µM | HOP-62 > 100 µM

Clc1ccc(C2N3CCCCC3[C@@H]3c4[nH]c5ccccc5c4CCN23)cc1 (some centres undefined)
inactive: TK-10 > 100 µM | UACC-257 83 µM | HCT-116 30.2 µM | K562 38 µM | RXF 393 35.2 µM | OVCAR-5 56.8 µM | CCRF-CEM 24.9 µM | UO-31 49.7 µM | RPMI-8226 90.2 µM | HT-29 22.5 µM | SK-MEL-5 59 µM | CAKI-1 > 100 µM | OVCAR-4 56.1 µM | HOP-62 > 100 µM

O=CC1=CCCN(CCc2c[nH]c3ccccc23)C1
inactive: TK-10 76.6 µM | UACC-257 63.8 µM | HCT-116 28.2 µM | K562 23.6 µM | RXF 393 30.5 µM | LOX IMVI 6.47 µM | OVCAR-5 71.3 µM | CCRF-CEM 23.4 µM | NCI-H226 46.3 µM | RPMI-8226 37.2 µM | HT-29 56.4 µM | SK-MEL-5 62.8 µM | CAKI-1 75.5 µM | HOP-62 52.6 µM

NNC(=S)N/N=C(\CC1OC(=O)c2ccccc21)c1ccccc1O (centres undefined)
inactive: TK-10 > 100 µM | UACC-257 > 100 µM | HCT-116 36.6 µM | K562 60.5 µM | RXF 393 36.4 µM | LOX IMVI 17.6 µM | OVCAR-5 18.2 µM | CCRF-CEM 25.9 µM | NCI-H226 33.6 µM | UO-31 37.7 µM | HT-29 61.5 µM | SK-MEL-5 42.3 µM | CAKI-1 71.8 µM | OVCAR-4 88.7 µM | HOP-62 33 µM

C/C=C/COC(=O)CO[N+](=O)[O-]
inactive: TK-10 > 100 µM | UACC-257 > 100 µM | HCT-116 > 100 µM | K562 > 100 µM | RXF 393 > 100 µM | LOX IMVI > 100 µM | OVCAR-5 > 100 µM | CCRF-CEM > 100 µM | NCI-H226 > 100 µM | UO-31 > 100 µM | RPMI-8226 > 100 µM | HT-29 > 100 µM | CAKI-1 > 100 µM | OVCAR-4 > 100 µM | HOP-62 > 100 µM

CCOC(=O)C1C(=O)C(C(=O)OCC)C(c2ccccc2)N(C)C1c1ccccc1 (centres undefined)
inactive: TK-10 > 100 µM | UACC-257 > 100 µM | HCT-116 58.2 µM | K562 > 100 µM | RXF 393 > 100 µM | LOX IMVI 33.9 µM | OVCAR-5 > 100 µM | CCRF-CEM > 100 µM | NCI-H226 > 100 µM | UO-31 > 100 µM | HT-29 > 100 µM | SK-MEL-5 66.4 µM | CAKI-1 > 100 µM | OVCAR-4 > 100 µM | HOP-62 > 100 µM

Clc1cccc(C2SCc3nc4ccccc4n32)c1Cl (centres undefined)
inactive: TK-10 15.6 µM | UACC-257 15.2 µM | HCT-116 18.6 µM | K562 12.8 µM | RXF 393 15.6 µM | OVCAR-5 13.9 µM | CCRF-CEM 19.1 µM | UO-31 13 µM | RPMI-8226 13.3 µM | HT-29 13.6 µM | SK-MEL-5 14.1 µM | CAKI-1 16.3 µM | OVCAR-4 13.9 µM | HOP-62 17.4 µM
